{"source": "patent US20230101312A1", "about": "“SOS1 INHIBITORS” (Mirati Therapeutics, Inc., priority 2020, published 2023)", "system": "MKN1 cells or H358", "experiment": "pERK inhibition in-cell western", "type": "cell-based", "conditions": "MKN1 or H358 cells (cell line not given), 1 hour with compound, GAPDH normalized", "method": "This Example illustrates that exemplary compounds of the present invention prevent KRas-mediated GTP nucleotide exchange mediated by SOS1 to inhibit KRas activity thereby inhibiting the generation of the downstream effector pERK. MKN1 cells (15,000/w) or H358 (30,000/w) were seeded in a black clear flat bottom 96-well cell culture plate (Corning, #3904) and incubated at 37° C. overnight. Assay day 1, cells were dosed with compounds of Formula (I) with a 10 μm starting concentration and serially diluted 3× for a total of 9 concentrations. The cells were incubated for 1 hour with the compounds solubilized in DMSO at 37° C. Cells were immediately fixed by adding 50 μL of 4% formaldehyde to all wells in a fume hood and the plates were incubated for 20 minutes at room temperature. The formaldehyde was discarded from the plates and 150 μL of ice-cold methanol was added to permeabilize the cells for 10 minutes at −20° C. The methanol was discarded from each of the plates and any liquid remaining in the plate by tapping the plate against paper towels. Cells were then blocked with 150 μL of Odyssey blocking buffer (LI-COR Biosciences #927-50010) using 0.05% Tween for 1 hour at room temperature on a shaker. […] The IC50 values were then calculated with the Graph pad Prism software.", "data": [{"smiles": "CNCc1ccccc1-c1csc([C@@H](C)Nc2ncc(C#N)c3cc(OC)c(OC)cc23)c1", "note": "[Example 1-1, (R)-6,7-dimethoxy-1-((1-(4-(2-((methylamino)methyl)phenyl)thiophen-2-yl)ethyl)amino)isoquinoline-4-carbonitrile]", "values": [{"measurement": "IC50", "value": 2.05, "unit": "µM"}]}]}
